Test results as given in US20210386729A1, “METHODS FOR TREATING LIVER DISORDERS USING FXR AGONISTS” (NOVARTIS AG, priority 2016, published 2021).
“Also recorded” adds a separate entry of the source. Read-outs that look alike come from different tables or passages of the source.

What was measured:
[1] = In vitro potency, human vs rat
[2] = Multiple oral dose plasma pharmacokinetics in healthy subjects; assay type: in vivo, human; conditions: for Cmax / AUC / Tmax: human, plasma
[3] = Single oral dose plasma pharmacokinetics in healthy subjects; assay type: in vivo, human; conditions: for CL/F / AUC(0-inf) / AUC(0-t) / Cmax / half-life / Tmax: healthy subjects, plasma; for AUC(0-inf) / AUC(0-t) / Cmax / half-life / Tmax: human
[4] = system: FGF15; assay: Serum FGF15 (MSD assay) in chronic rat ANIT-induced cholestasis model; assay type: in vivo; conditions: chronic treatment rat ANIT model
Experimental: Serum FGF15 levels were quantified using an FGF15 Meso Scale Discovery (MSD) assay. Mouse FGF15 antibody from R&D Systems (AF6755) was used both as capture and detection antibody in the assay. MSD SULFO-TAG NHS-Ester was used to label the FGF15 antibody. MSD standard 96-well plates were coated with the FGF15 capture antibody and the plates were blocked with MSD Blocker A (R93AA-2). After washing the plate with PBS+0.05% Tween 20, MSD diluent 4 was dispensed into each well and incubated for 30 min. 25 μl of calibrator dilutions or samples (serum or EDTA plasma) were dispensed into each well and incubated with shaking at RT. After washing, detection antibody was added and incubated with shaking for 1 h at RT. After washing and the addition of MSD Read buffer (R92TC-2), the plate was read on an MSD SECTOR Imager 6000. Plots of the standard curve and unknown samples were calculated using MSD data analysis software.
Activation of FXR in the ileum induces the expression of fibroblast growth factor 15 (FGF15 in rodent; FGF19 in human), a hormone that is secreted in the portal blood and signals to the liver to repress Cyp7a1 expression synergistically with SHP. The direct FXR-dependent induction of FGF15/19 along with FGF15/19's anti-cholestatic properties makes it a convenient serum biomarker for detecting target engagement of FXR agonists.

[5] = system: rat alpha-naphthyl-isothiocyanate (ANIT) model; assay: Chronic treatment rat ANIT model, serum markers of cholestasis and liver damage; assay type: in vivo; conditions: 14 days oral dosing
Experimental: This model was utilized because it recapitulates many features of cholestasis observed in human PBC. In rats, ANIT-treatment leads to hepatic inflammatory cell infiltrate, bile duct hyperplasia, necrosis of bile duct epithelium, expansion of the hepatic portal region, hepatic fibrosis, hepatocellular necrosis and elevated levels of circulating bile acids, bilirubin, ALT, AST and GGT. These features are similar to subjects with advanced PBC.
Rats were treated with alpha-naphthyl-isothiocyanate (ANIT) (0.1% w/w) in food for 3 days prior to treatment with the compound at the indicated doses or with vehicle control (“Veh”). A non-cholestatic control group was fed standard chow diet without ANIT, and serve as the non-cholestatic control animals (“Control”). After 14 days of oral dosing, the indicated analyte was measured in serum. LLQ, lower limit of quantitation. Mean±SEM; n=5.

[6] = healthy subjects, 10 μg qd, Day 1, plasma, mean
[7] = healthy subjects, 10 μg qd, Day 13, plasma, mean
[8] = healthy subjects, 30 μg qd, Day 1, plasma, mean
[9] = healthy subjects, 30 μg qd, Day 13, plasma, mean
[10] = healthy subjects, 60 μg qd, Day 1, plasma, mean
[11] = healthy subjects, 60 μg qd, Day 13, plasma, mean
[12] = healthy subjects, 100 μg qd, Day 1, plasma, mean
[13] = healthy subjects, 100 μg qd, Day 13, plasma, mean
[14] = 10 ug, single oral dose 10 μg, fasted, mean
[15] = 30 ug, single oral dose 30 μg, fasted, mean
[16] = 100 ug, single oral dose 100 μg, fasted, mean
[17] = 300 ug, single oral dose 300 μg, fasted, mean
[18] = 1000 ug, single oral dose 1000 μg, fasted, mean
[19] = 3000 ug, single oral dose 3000 μg, fasted, mean

## O=C(O)c1cc(F)c2nc(N3C4CC[C@H]3CC(OCc3c(-c5ccccc5OC(F)(F)F)noc3C3CC3)C4)sc2c1 (stereo partly drawn) [Compound A]
[1]
  in vitro potency between human and rat: similar
[2]; [6]
  Racc: 1.00
  Tlast: 23.9 h
[2]; [7]
  Racc: 1.87
  Tlast: 23.6 h
[2]; [8]
  Racc: 1.00
  Tlast: 23.9 h
[2]; [9]
  Racc: 1.21
  Tlast: 23.6 h
[2]; [10]
  Racc: 1.00
  Tlast: 23.9 h
[2]; [11]
  Racc: 1.66
  Tlast: 22.3 h
[2]; [12]
  Racc: 1.00
  Tlast: 23.9 h
[2]; [13]
  Racc: 1.41
  Tlast: 23.6 h
[2]; oral, 10 μg, average Cmax at day 13 for a dose level of 10 μg, exposures for the doses 10-100 μg normalized to 10 μg
  Cmax: 0.32 ng/mL
[2]; oral, 10 μg, exposures for the doses 10-100 μg normalized to 10 μg, read-out: average AUCtau at day 13 for a dose level of 10 μg
  AUC: 4.84 ng·h/mL
[2]; oral, 10 ug, healthy subjects, 10 μg qd, Day 1, plasma, mean, read-out: AUCtau
  AUC: 2.88 ng·h/mL
[2]; oral, 10 ug, healthy subjects, 10 μg qd, Day 1, plasma, mean, read-out: Cmax
  Cmax: 0.212 ng/mL
[2]; oral, 10 ug, healthy subjects, 10 μg qd, Day 1, plasma, median, read-out: Tmax
  Tmax: 4 h
[2]; oral, 10 ug, healthy subjects, 10 μg qd, Day 13, plasma, mean, read-out: AUCtau
  AUC: 4.88 ng·h/mL
[2]; oral, 10 ug, healthy subjects, 10 μg qd, Day 13, plasma, mean, read-out: Cmax
  Cmax: 0.319 ng/mL
[2]; oral, 10 ug, healthy subjects, 10 μg qd, Day 13, plasma, median, read-out: Tmax
  Tmax: 4 h
[2]; oral, 30 ug, healthy subjects, 30 μg qd, Day 1, plasma, mean, read-out: AUCtau
  AUC: 11.7 ng·h/mL
[2]; oral, 30 ug, healthy subjects, 30 μg qd, Day 1, plasma, mean, read-out: Cmax
  Cmax: 0.894 ng/mL
[2]; oral, 30 ug, healthy subjects, 30 μg qd, Day 1, plasma, median, read-out: Tmax
  Tmax: 6 h
[2]; oral, 30 ug, healthy subjects, 30 μg qd, Day 13, plasma, mean, read-out: AUCtau
  AUC: 14 ng·h/mL
[2]; oral, 30 ug, healthy subjects, 30 μg qd, Day 13, plasma, mean, read-out: Cmax
  Cmax: 0.943 ng/mL
[2]; oral, 30 ug, healthy subjects, 30 μg qd, Day 13, plasma, median, read-out: Tmax
  Tmax: 4 h
[2]; oral, 60 ug, healthy subjects, 60 μg qd, Day 1, plasma, mean, read-out: AUCtau
  AUC: 16.2 ng·h/mL
[2]; oral, 60 ug, healthy subjects, 60 μg qd, Day 1, plasma, mean, read-out: Cmax
  Cmax: 1.22 ng/mL
[2]; oral, 60 ug, healthy subjects, 60 μg qd, Day 1, plasma, median, read-out: Tmax
  Tmax: 4 h
[2]; oral, 60 ug, healthy subjects, 60 μg qd, Day 13, plasma, mean, read-out: AUCtau
  AUC: 25.3 ng·h/mL
[2]; oral, 60 ug, healthy subjects, 60 μg qd, Day 13, plasma, mean, read-out: Cmax
  Cmax: 1.61 ng/mL
[2]; oral, 60 ug, healthy subjects, 60 μg qd, Day 13, plasma, median, read-out: Tmax
  Tmax: 4 h
[2]; oral, 100 ug, healthy subjects, 100 μg qd, Day 1, plasma, mean, read-out: AUCtau
  AUC: 30.3 ng·h/mL
[2]; oral, 100 ug, healthy subjects, 100 μg qd, Day 1, plasma, mean, read-out: Cmax
  Cmax: 2.4 ng/mL
[2]; oral, 100 ug, healthy subjects, 100 μg qd, Day 1, plasma, median, read-out: Tmax
  Tmax: 4 h
[2]; oral, 100 ug, healthy subjects, 100 μg qd, Day 13, plasma, mean, read-out: AUCtau
  AUC: 50.2 ng·h/mL
[2]; oral, 100 ug, healthy subjects, 100 μg qd, Day 13, plasma, mean, read-out: Cmax
  Cmax: 3.47 ng/mL
[2]; oral, 100 ug, healthy subjects, 100 μg qd, Day 13, plasma, median, read-out: Tmax
  Tmax: 4 h
[2]; po, once daily oral dosing 10-100 μg, fasted, post-dose, read-out: Tmax range
  Tmax: 3 to 10 h
[2]; po, once daily oral dosing for 13 days, fasted, Day 13, across all doses, read-out: median Tmax
  Tmax: 4 h
[2]; once daily doses for 13 days, 10-100 μg
  dose proportionality of Cmax and AUCtau: approximately dose-proportional increase
[2]; once daily oral dosing, trough levels
  time to steady-state: ≤ 4 days
[3]; single oral dose 10 μg, fasted, mean
  CL/F: 2.98 L/h
[3]; single oral dose 30 μg, fasted, mean
  CL/F: 2.26 L/h
[3]; single oral dose 100 μg, fasted, mean
  CL/F: 3.08 L/h
[3]; single oral dose 300 μg, fasted, mean
  CL/F: 3.21 L/h
[3]; single oral dose 1000 μg, fasted, mean
  CL/F: 2.43 L/h
[3]; single oral dose 3000 μg, fasted, mean
  CL/F: 3.63 L/h
[3]; [14]
  AUC(0-inf): 3.39 ng·h/mL
  AUC(0-t): 2.79 ng·h/mL
  Cmax: 0.186 ng/mL
[3]; 10 ug, single oral dose 10 μg, fasted, mean, read-out: T1/2 (converted)
  half-life: 14.9 h
[3]; 10 ug, single oral dose 10 μg, fasted, median, read-out: Tmax
  Tmax: 4 h
[3]; [15]
  AUC(0-inf): 13.4 ng·h/mL
  AUC(0-t): 12.7 ng·h/mL
  Cmax: 0.627 ng/mL
[3]; 30 ug, single oral dose 30 μg, fasted, mean, read-out: T1/2 (converted)
  half-life: 13.7 h
[3]; 30 ug, single oral dose 30 μg, fasted, median, read-out: Tmax
  Tmax: 4 h
[3]; [16]
  AUC(0-inf): 37.9 ng·h/mL
  AUC(0-t): 34.8 ng·h/mL
  Cmax: 1.73 ng/mL
[3]; 100 ug, single oral dose 100 μg, fasted, mean, read-out: T1/2 (converted)
  half-life: 13.5 h
[3]; 100 ug, single oral dose 100 μg, fasted, median, read-out: Tmax
  Tmax: 4 h
[3]; [17]
  AUC(0-inf): 123 ng·h/mL
  AUC(0-t): 119 ng·h/mL
  Cmax: 6.41 ng/mL
[3]; 300 ug, single oral dose 300 μg, fasted, mean, read-out: T1/2 (converted)
  half-life: 15.3 h
[3]; 300 ug, single oral dose 300 μg, fasted, median, read-out: Tmax
  Tmax: 4 h
[3]; [18]
  AUC(0-inf): 482 ng·h/mL
  AUC(0-t): 416 ng·h/mL
  Cmax: 22.1 ng/mL
[3]; 1000 ug, single oral dose 1000 μg, fasted, mean, read-out: T1/2 (converted)
  half-life: 21.9 h
[3]; 1000 ug, single oral dose 1000 μg, fasted, median, read-out: Tmax
  Tmax: 4 h
[3]; [19]
  AUC(0-inf): 933 ng·h/mL
  AUC(0-t): 888 ng·h/mL
  Cmax: 54.2 ng/mL
[3]; 3000 ug, single oral dose 3000 μg, fasted, mean, read-out: T1/2 (converted)
  half-life: 16.5 h
[3]; 3000 ug, single oral dose 3000 μg, fasted, median, read-out: Tmax
  Tmax: 4 h
[3]; single oral dose, fasted, read-out: median Tmax
  Tmax: 4 h
[3]; single oral dose, range across doses, read-out: mean apparent terminal elimination half-life
  half-life: 13 to 22 h
[3]; single dose, dose range 10 μg to 3000 μg
  dose proportionality of mean Cmax and AUCinf: approximately dose proportional increase
[4]
  serum FGF15 levels: stimulated serum FGF15 expression; also recorded: Significant dose-dependent induction
[5]
  serum bile acid concentrations: Marked reductions
  serum bilirubin concentrations: Marked reductions
[5]; 0.01 to 3 mg/kg
  hepatobiliary injury indicators (AST, ALT, bilirubin, bile acids) in serum: improved many of these indicators starting at doses as low as 0.01 mg/kg
